The record followed here is ChEMBL document CHEMBL3526076, “Species-dependent and receptor-selective action of bilobalide on the function of constitutive androstane receptor and pregnane X receptor” (Drug Metab Dispos, 2012).

Data set [1] addresses T1, Nuclear receptor subfamily 1 group I member 3 (Homo sapiens, UniProt Q14994).
T1 sequence (Q14994 whole entry): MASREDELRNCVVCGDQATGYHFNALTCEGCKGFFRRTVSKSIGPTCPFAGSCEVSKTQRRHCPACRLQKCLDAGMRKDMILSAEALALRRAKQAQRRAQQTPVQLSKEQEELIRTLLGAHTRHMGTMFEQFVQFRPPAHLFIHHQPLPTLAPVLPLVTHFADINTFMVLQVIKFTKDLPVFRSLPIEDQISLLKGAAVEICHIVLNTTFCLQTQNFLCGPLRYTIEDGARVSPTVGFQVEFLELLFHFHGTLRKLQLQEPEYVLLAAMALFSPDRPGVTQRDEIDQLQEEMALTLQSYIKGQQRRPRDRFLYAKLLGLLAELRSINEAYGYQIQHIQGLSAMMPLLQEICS
Briefly: Activation of CAR in human Hu1108 hepatocytes assessed as increase in CYP2B6-mediated bupropion hydroxylation at 10 to 50 uM after 24 hrs by LC-MS analysis. The data set is classed as ADME, cell-based, Hepatocyte.

A further data set has as its system HepG2. The experiment in a line: Cytotoxicity against human HepG2 cells at 1 to 100 uM after 24 hrs by lactate dehydrogenase assay. The data set is classed as cell-based. As to conditions: hepg2, 24 h; call rule not given here.
The next data set has as its system CAR mRNA. Briefly: Effect on CAR mRNA expression in rat hepatocytes at 3 uM by RT-PCR analysis relative to control. The class given is ADME, cell-based, Hepatocyte. The note with it: read-out: FC.
Data set [2] has as its target T2, Nuclear receptor subfamily 1 group I member 2 (Homo sapiens, UniProt O75469).
T2 sequence (O75469 whole entry): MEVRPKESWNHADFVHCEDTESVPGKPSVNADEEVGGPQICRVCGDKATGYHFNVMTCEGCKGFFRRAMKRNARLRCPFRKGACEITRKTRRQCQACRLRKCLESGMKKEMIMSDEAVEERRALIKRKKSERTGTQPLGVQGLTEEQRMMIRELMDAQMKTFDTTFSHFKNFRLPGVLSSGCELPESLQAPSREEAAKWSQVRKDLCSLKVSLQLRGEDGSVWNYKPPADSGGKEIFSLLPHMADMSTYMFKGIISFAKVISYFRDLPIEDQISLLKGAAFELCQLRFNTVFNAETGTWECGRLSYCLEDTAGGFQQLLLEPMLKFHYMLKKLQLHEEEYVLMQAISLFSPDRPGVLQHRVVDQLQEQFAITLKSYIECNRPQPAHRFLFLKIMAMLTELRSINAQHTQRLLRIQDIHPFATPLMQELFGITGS
Briefly: Activation of PXR in human Hu1043 hepatocytes assessed as effect on CYP3A-mediated testosterone 6beta-hydroxylation at 10 to 60 uM after 24 hrs by HPLC analysis. The class given is ADME, cell-based, Hepatocyte.

On to `CC(C)(C)[C@]1(O)C[C@@H]2OC(=O)C[C@@]23C(=O)O[C@@H]2OC(=O)[C@H](O)[C@]213`, for which the Activity entry in data set [1] is listed as “Not Active”; in the data set on HepG2, “Non-toxic”; in data set [2] it was “Not Active”. For the same compound, the fold induction at 3 µM in the data set on CAR mRNA stood at 1.3.
